# Experimental data reported in PubChem BioAssay (NCI).
#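 Test compounds were applied to cells in 96-well plates for 48 hours at 5 doses. GI50 is the concentration that inhibits growth by half. TGI is the concentration that stops growth completely.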
# Tests used:
# Assay in all cases: inhibition of tumour cell growth, NCI panel, 48 h
# SK-MEL-28 melanoma = system: SK-MEL-28 melanoma
# TK-10 renal = system: TK-10 renal
# MCF7 breast = system: MCF7 breast
# RXF 393 renal = system: RXF 393 renal
# MOLT-4 leukemia = system: MOLT-4 leukemia
# ACHN renal = system: ACHN renal
# A498 renal = system: A498 renal
# SK-MEL-5 melanoma = system: SK-MEL-5 melanoma
# SF-539 CNS = system: SF-539 CNS
# 786-0 renal = system: 786-0 renal
# NCI-H460 lung = system: NCI-H460 lung
# HOP-92 NSCLC = system: HOP-92 NSCLC
# IGROV1 ovarian = system: IGROV1 ovarian
# SR leukemia = system: SR leukemia
# U251 CNS = system: U251 CNS
# HCT-116 colon = system: HCT-116 colon
# SNB-75 CNS = system: SNB-75 CNS
# SW-620 colon = system: SW-620 colon
# M14 melanoma = system: M14 melanoma
# BT-549 breast = system: BT-549 breast
# NCI-H23 lung = system: NCI-H23 lung
# SF-268 CNS = system: SF-268 CNS
# A549 NSCLC = system: A549 NSCLC
# LOX IMVI melanoma = system: LOX IMVI melanoma
# OVCAR-4 ovarian = system: OVCAR-4 ovarian
# K-562 leukemia = system: K-562 leukemia
# SK-OV-3 ovarian = system: SK-OV-3 ovarian
# EKVX NSCLC = system: EKVX NSCLC
# MDA-MB-231 breast = system: MDA-MB-231 breast
# HS 578T breast = system: HS 578T breast
# MDA-MB-435 = system: MDA-MB-435
# HCC-2998 colon = system: HCC-2998 colon
# HT29 colon = system: HT29 colon
# SF-295 CNS = system: SF-295 CNS
# NCI/ADR-RES ovarian = system: NCI/ADR-RES ovarian
# HL-60(TB) leukemia = system: HL-60(TB) leukemia
# SN12C renal = system: SN12C renal
# HOP-62 NSCLC = system: HOP-62 NSCLC
# RPMI-8226 leukemia = system: RPMI-8226 leukemia
# UACC-62 melanoma = system: UACC-62 melanoma
# SNB-19 CNS = system: SNB-19 CNS
# HCT-15 colon = system: HCT-15 colon
# DU-145 prostate = system: DU-145 prostate
# CAKI-1 renal = system: CAKI-1 renal
# MALME-3M melanoma = system: MALME-3M melanoma
# KM12 colon = system: KM12 colon
# OVCAR-8 ovarian = system: OVCAR-8 ovarian
# COLO 205 colon = system: COLO 205 colon
# NCI-H226 lung = system: NCI-H226 lung
# OVCAR-5 ovarian = system: OVCAR-5 ovarian
# UO-31 renal = system: UO-31 renal
# UACC-257 melanoma = system: UACC-257 melanoma
# PC-3 prostate = system: PC-3 prostate
# CCRF-CEM leukemia = system: CCRF-CEM leukemia
# NCI-H522 lung = system: NCI-H522 lung
# T-47D breast = system: T-47D breast
smiles,measurement,setting,value
CCN(CC)CCN1C(=O)c2c(c3c4cc(Br)ccc4[nH]c3c3ccc4ccccc4c23)C1=O,GI50,SK-MEL-28 melanoma,1.73 µM
same,TGI,SK-MEL-28 melanoma,3.19 µM
same,GI50,TK-10 renal,2.11 µM
same,TGI,TK-10 renal,3.56 µM
same,GI50,MCF7 breast,0.0439 µM
same,TGI,MCF7 breast,1.64 µM
same,GI50,RXF 393 renal,1.58 µM
same,TGI,RXF 393 renal,3 µM
same,GI50,MOLT-4 leukemia,0.215 µM
same,TGI,MOLT-4 leukemia,1.92 µM
same,GI50,ACHN renal,1.14 µM
same,TGI,ACHN renal,2.36 µM
same,GI50,A498 renal,1.64 µM
same,TGI,A498 renal,3.29 µM
same,GI50,SK-MEL-5 melanoma,1.75 µM
same,TGI,SK-MEL-5 melanoma,3.18 µM
same,GI50,SF-539 CNS,1.56 µM
same,TGI,SF-539 CNS,3 µM
same,GI50,786-0 renal,1.71 µM
same,TGI,786-0 renal,3.11 µM
same,GI50,NCI-H460 lung,0.476 µM
same,TGI,NCI-H460 lung,1.85 µM
same,GI50,HOP-92 NSCLC,1.32 µM
same,TGI,HOP-92 NSCLC,2.71 µM
same,GI50,IGROV1 ovarian,1.27 µM
same,TGI,IGROV1 ovarian,2.82 µM
same,GI50,SR leukemia,0.102 µM
same,TGI,SR leukemia,0.52 µM
same,GI50,U251 CNS,1.02 µM
same,TGI,U251 CNS,2.21 µM
same,GI50,HCT-116 colon,1.25 µM
same,TGI,HCT-116 colon,2.5 µM
same,GI50,SNB-75 CNS,1.45 µM
same,TGI,SNB-75 CNS,2.84 µM
same,GI50,SW-620 colon,0.553 µM
same,TGI,SW-620 colon,2.16 µM
same,GI50,M14 melanoma,1.57 µM
same,TGI,M14 melanoma,2.96 µM
same,GI50,BT-549 breast,2.22 µM
same,TGI,BT-549 breast,4.07 µM
same,GI50,NCI-H23 lung,1.5 µM
same,TGI,NCI-H23 lung,3.32 µM
same,GI50,SF-268 CNS,1.52 µM
same,TGI,SF-268 CNS,3.53 µM
same,GI50,A549 NSCLC,1.43 µM
same,TGI,A549 NSCLC,2.79 µM
same,GI50,LOX IMVI melanoma,1.25 µM
same,TGI,LOX IMVI melanoma,3.04 µM
same,GI50,OVCAR-4 ovarian,1.68 µM
same,TGI,OVCAR-4 ovarian,3.22 µM
same,GI50,K-562 leukemia,0.273 µM
same,TGI,K-562 leukemia,0.905 µM
same,GI50,SK-OV-3 ovarian,1.5 µM
same,TGI,SK-OV-3 ovarian,2.9 µM
same,GI50,EKVX NSCLC,1.38 µM
same,TGI,EKVX NSCLC,2.92 µM
same,GI50,MDA-MB-231 breast,1.41 µM
same,TGI,MDA-MB-231 breast,3 µM
same,GI50,HS 578T breast,1.94 µM
same,TGI,HS 578T breast,5.02 µM
same,GI50,MDA-MB-435,1.63 µM
same,TGI,MDA-MB-435,3.08 µM
same,GI50,HCC-2998 colon,1.66 µM
same,TGI,HCC-2998 colon,3.43 µM
same,GI50,HT29 colon,1.35 µM
same,TGI,HT29 colon,2.8 µM
same,GI50,SF-295 CNS,1.61 µM
same,TGI,SF-295 CNS,3.09 µM
same,GI50,NCI/ADR-RES ovarian,1.43 µM
same,TGI,NCI/ADR-RES ovarian,4.19 µM
same,GI50,HL-60(TB) leukemia,1.58 µM
same,TGI,HL-60(TB) leukemia,3.98 µM
same,GI50,SN12C renal,1.58 µM
same,TGI,SN12C renal,3.14 µM
same,GI50,HOP-62 NSCLC,0.922 µM
same,TGI,HOP-62 NSCLC,2.25 µM
same,GI50,RPMI-8226 leukemia,1.21 µM
same,TGI,RPMI-8226 leukemia,3.23 µM
same,GI50,UACC-62 melanoma,1.64 µM
same,TGI,UACC-62 melanoma,3.5 µM
same,GI50,SNB-19 CNS,1.43 µM
same,TGI,SNB-19 CNS,2.84 µM
same,GI50,HCT-15 colon,1.4 µM
same,TGI,HCT-15 colon,3.08 µM
same,GI50,DU-145 prostate,1.22 µM
same,TGI,DU-145 prostate,2.56 µM
same,GI50,CAKI-1 renal,1.25 µM
same,TGI,CAKI-1 renal,2.63 µM
same,GI50,MALME-3M melanoma,1.56 µM
same,TGI,MALME-3M melanoma,3.06 µM
same,GI50,KM12 colon,1.71 µM
same,TGI,KM12 colon,3.5 µM
same,GI50,OVCAR-8 ovarian,1.27 µM
same,TGI,OVCAR-8 ovarian,2.66 µM
same,GI50,COLO 205 colon,1.43 µM
same,TGI,COLO 205 colon,3.13 µM
same,GI50,NCI-H226 lung,5.64 µM
same,TGI,NCI-H226 lung,33.7 µM
same,GI50,OVCAR-5 ovarian,1.76 µM
same,TGI,OVCAR-5 ovarian,3.23 µM
same,GI50,UO-31 renal,1.32 µM
same,TGI,UO-31 renal,2.62 µM
same,GI50,UACC-257 melanoma,1.64 µM
same,TGI,UACC-257 melanoma,3.01 µM
same,GI50,PC-3 prostate,1.31 µM
same,TGI,PC-3 prostate,2.65 µM
same,GI50,CCRF-CEM leukemia,0.186 µM
same,TGI,CCRF-CEM leukemia,1.75 µM
same,GI50,NCI-H522 lung,1.29 µM
same,TGI,NCI-H522 lung,2.67 µM
same,GI50,T-47D breast,0.7 µM
same,TGI,T-47D breast,2.56 µM
